# Reference: patent US12448399B2, “Cereblon-based KRAS degrading PROTACs and uses related thereto” (Arvinas Operations, Inc., priority 2023, dated 2025)
# What was measured:
# AsPC-1 = assay: Tumor growth inhibition in vivo, AsPC-1 pancreatic cancer model; set-up: species or system CB17 SCID female mice; details: AsPC-1 model, dosed intravenously (IV)
# Protocol: (§1) The effect on tumor growth of treatment with Compound 69 and 102 was assessed in the GP2d (95090714 Millipore Sigma, USA) and LS180 (CL-187 ATCC, USA) colorectal cancer models, and the AsPC-1 (CRL-1682 ATCC, USA), SW1990 (CRL-2172, ATCC, USA), HPAC (CRL-2119 ATCC, USA), and Panc04.03 (CRL-2555 ATCC, USA) pancreatic cancer models. Briefly, cells were grown in HYPER flasks (Corning) and harvested and prepared for implant by preparing a suspension with a final concentration of 25×10^6 cells/ml in 50% matrigel (Corning) and 50% phenol red-free media (Gibco DMEM or RPMI-1640, depending on cell line). For Panc04.03, 6-7 week NOD/SCID female mice (GemPharmatech Co. Ltd) were inoculated with 200 μl of the cell suspension ([…]) subcutaneously on the left flank under sterile conditions. For all other cell lines, 6-8 weeks old CB17 SCID female mice (Charles River Laboratories) were inoculated with 200 μl of the cell suspension (5 million cells/mouse) subcutaneously on the left flank under sterile conditions. Studies were initiated when tumors reached an average of approximately 200 mm^3. […] Tumor growth inhibition (TGI) was calculated using the formula % TGI=(VC−VT)/(VC−V0)×100 where VC, VT are the average of control and treated groups at the end of the study, and V0 is the average tumor volume at randomization.
# SW1990 = assay: Tumor growth inhibition in vivo, SW1990 pancreatic cancer model; set-up: species or system CB17 SCID female mice; details: dosed intravenously (IV)
# Protocol: as §1
# GP2d = assay: Tumor growth inhibition in vivo, GP2d colorectal cancer model; set-up: species or system CB17 SCID female mice; details: dosed intravenously (IV)
# Protocol: as §1
# LS180 = assay: Tumor growth inhibition in vivo, LS180 colorectal cancer model; set-up: species or system CB17 SCID female mice; details: dosed intravenously (IV)
# Protocol: as §1
# HPAC = assay: Tumor growth inhibition in vivo, HPAC pancreatic cancer model; set-up: species or system CB17 SCID female mice; details: dosed intravenously (IV)
# Protocol: as §1
# Panc04.03 = assay: Tumor growth inhibition in vivo, Panc04.03 pancreatic cancer model; set-up: species or system NOD/SCID female mice; details: Panc04.03 model, dosed intravenously (IV)
# Protocol: as §1
# KRas-G12D = target: T1, KRas-G12D (Homo sapiens, UniProt P01116, G12D); assay: HiBiT Degradation Assay (G12D), AsPC-1 HiBiT-KRasG12D cells, 24 hr; type: cell-based; details: for Dmax: ASPC1, AsPC-1 cells, maximum degradation observed; for DC50: AsPC-1 cells
# T1 construct: insert the HiBiT tag onto the N-terminus of one or more of the endogenous KRas alleles; host or cells: AsPC-1 HiBiT-KRasG12D knock-in clone (one tagged allele, two untagged KRasG12D alleles)
# T1 sequence (P01116 1-188 isoform P01116-2 G12D): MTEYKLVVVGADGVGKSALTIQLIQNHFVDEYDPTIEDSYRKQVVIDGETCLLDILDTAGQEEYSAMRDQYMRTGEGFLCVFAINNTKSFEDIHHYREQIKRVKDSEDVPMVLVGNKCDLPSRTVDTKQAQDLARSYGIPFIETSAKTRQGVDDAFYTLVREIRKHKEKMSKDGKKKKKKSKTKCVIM
# In short: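 AsPC-1 cells with CRISPR N-terminal HiBiT knock-in on one endogenous KRasG12D allele, treated 24 hr at 37° C with compound titrations in 0.5% DMSO. Lytic HiBiT luminescence normalized to DMSO, fitted to a 4-parameter model for DC50 and Dmax. Parallel alamar blue (4 hr) checked viability.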
SMILES,Tumor growth response (AsPC-1),Tumor growth inhibition (TGI) (SW1990),Tumor growth inhibition (TGI) (GP2d),Tumor growth inhibition (TGI) (LS180),Tumor growth inhibition (TGI) (HPAC),Tumor growth inhibition (TGI) (Panc04.03),Dmax (KRas-G12D),DC50 (KRas-G12D),TGI (AsPC-1)
"C#Cc1c(F)ccc2cc(O)cc(-c3ncc4c(N5CC6CCC(C5)N6)nc(OCCN5CCC(CC6CCN(CC7CCN(c8ccc9c(c8F)CN(C8CCC(=O)NC8=O)C9=O)CC7)CC6)CC5)nc4c3F)c12 (stereo not shown) [Compound 69, 3-[5-[4-[[4-[[1-[2-[4-(3,8-diazabicyclo[3.2.1]octan-3-yl)-7-(8-ethynyl-7-fluoro-3-hydroxy-1-naphthyl)-8-fluoro-pyrido[4,3-d]pyrimidin-2-yl]oxyethyl]-4-piperidyl]methyl]-1-piperidyl]methyl]-1-piperidyl]-4-fluoro-1-oxo-isoindolin-2-yl]piperidine-2,6-dione]",More moderate response,robust TGI,robust TGI,robust TGI,robust TGI,robust TGI,> 70%,< 5.1 µM,–
"C#Cc1c(F)ccc2cc(O)cc(-c3ncc4c(N5CC6CCC(C5)N6)nc(OCCN5CCC(CC6CCN(CC7CCN(c8ccc9c(c8)n(C)c(=O)n9C8CCC(=O)NC8=O)CC7)CC6)CC5)nc4c3F)c12 (stereo not shown) [Compound 102, 3-[5-[4-[[4-[[1-[2-[4-(3,8-diazabicyclo[3.2.1]octan-3-yl)-7-(8-ethynyl-7-fluoro-3-hydroxy-1-naphthyl)-8-fluoro-pyrido[4,3-d]pyrimidin-2-yl]oxyethyl]-4-piperidyl]methyl]-1-piperidyl]methyl]-1-piperidyl]-3-methyl-2-oxo-benzimidazol-1-yl]piperidine-2,6-dione]",–,robust TGI,robust TGI,robust TGI,robust TGI,robust TGI,> 70%,< 5.1 µM,100%
